Reference: patent US4962024A, “Signal enhancement in assay for an enzyme” (priority 1988, dated 1990)
Structures can show the parent of a compound that is named as a salt. Where two headings read alike, the source gives them in different places.

Molecular target: acetyl cholinesterase (AChE) (Homo sapiens, UniProt P22303)
Experiment: Inhibition constants: inhibition of acetyl cholinesterase (AChE), acetyl thiocholine and Ellman's reagent
Type: biochemical
Method: Inhibition constants were measured in 50 mM Tris pH=8.0. Enzyme and inhibitor were incubated at ambient temperature for 20 minutes. Substrate for the enzyme was then added and the rate of hydrolysis was followed spectrophotometrically. The substrate for PLE and RLE was o-nitrophenylbutyrate and for AChE was acetyl thiocholine and Ellman's reagent.

Sequence of acetyl cholinesterase (AChE) (P22303 32-614): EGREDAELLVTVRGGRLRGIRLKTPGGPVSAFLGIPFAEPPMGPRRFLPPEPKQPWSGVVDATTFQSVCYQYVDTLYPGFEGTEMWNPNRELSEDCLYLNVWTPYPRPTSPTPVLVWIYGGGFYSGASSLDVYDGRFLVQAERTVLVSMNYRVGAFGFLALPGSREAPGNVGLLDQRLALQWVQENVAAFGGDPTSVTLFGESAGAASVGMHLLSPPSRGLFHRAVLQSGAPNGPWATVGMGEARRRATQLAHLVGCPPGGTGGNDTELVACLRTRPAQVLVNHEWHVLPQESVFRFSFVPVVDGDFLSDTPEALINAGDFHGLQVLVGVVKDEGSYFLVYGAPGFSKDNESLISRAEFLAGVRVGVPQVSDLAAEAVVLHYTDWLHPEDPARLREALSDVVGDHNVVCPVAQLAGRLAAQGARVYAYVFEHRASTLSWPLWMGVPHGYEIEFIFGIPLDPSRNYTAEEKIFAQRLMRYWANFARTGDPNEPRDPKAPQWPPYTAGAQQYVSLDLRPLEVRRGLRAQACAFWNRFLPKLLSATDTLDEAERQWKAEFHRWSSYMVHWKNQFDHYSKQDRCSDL

Row | SMILES | Ki [M] | Ki (AChE, 50 mM Tris pH=8.0, 20 minutes incubation at ambient temperature, acetyl thiocholine and Ellman's reagent, read-out: Ki (M)* (Esterase)) [M]
1 | C[N+](C)(CCCCO)CCCC(=O)C(F)(F)F [N,N-dimethyl-N-[4-(hydroxy)butyl] 5,5,5-trifluoro-4-oxopentanaminium, hydroxide salt] | 6.5e-08 | –
2 | C[N+](C)(CCO)CCCC(=O)C(F)(F)F [N,N-dimethyl-N-[2-(hydroxy)ethyl]-5,5,5-trifluoro-4-oxopentanaminium, hydroxide salt] | – | 5e-09
